Experimental data: patent publication US9072750B2, “Use of prostaglandins F2Alpha and analogues for the healing of corneal and conjunctival lesions” (priority 2009, dated 2015)

Assays:
[1] = test system: human corneal epithelial (HCE) cells; test: Scraping wound closure assay on human corneal epithelial cell monolayer; type: cell-based; conditions: 24 h post scraping
Procedure: Brief description of the protocol: human corneal epithelial (HCE) cells (100 000 cells per well) were plated in 6-well plates and cultured until confluence. At confluence the cell monolayer was scraped with a yellow tip, the medium removed and incubated for 30 min with 1/10 dilutions of the different test articles (PBS (phosphate buffer solution), Xalatan® (aqueous solution of latanoprost at 0.005%), 0.02% BAK (benzalkonium chloride aqueous solution), and the Latanoprost Emulsion of the invention (with 0.005% latanoprost). Following the treatment, test article dilutions were removed and replaced by fresh culture medium. The scraping closure was assessed 2 and 24 h post treatment. Immunohistology of proliferation marker (Ki67) was also performed on cells cultured for 24 h post scraping.

Sprague-Dawley rats = test: Corneal scraping (deshepithelization) wound healing model in the rat, repeated instillations; type: in vivo
Procedure: Brief description of the protocol: 16 male Sprague-Dawley rats weighting 100 to 125 g were randomly assigned to 4 groups (4 rats per group (Gp)): Gp1, Phosphate buffer solution (PBS); Gp2, 0.02% benzalkonium chloride (BAK); Gp3, Xalatan®; Gp4, Latanoprost Emulsion. Following general and local anesthesia with ketamine/xylazine and topical Oxybucaïne, respectively, the upper part of the right eye cornea of each rat was scraped with a surgical scalpel following an application of 50 μl of 50% ethanol solution. The upper corneal and limbal epithelia were removed (at day D0). One drop of Tobrex was instilled immediately after the scraping. 2 and 5 hours post scraping one drop of the different test articles were applied onto the cornea of the right eye. These latter instillations were repeated every day for 4 days, and corneal evaluation with an in vivo confocal microscope (IVCM-HRT) was performed on day 4 after the last instillation. At the end of the experimental procedure (the total duration of the treatment is 5 days; from day D0 to D4), the animals were sacrificed and the eyes harvested to characterize the histological organisation of the treated cornea.

in vivo confocal microscopy (IVCM) of superficial epithelium: scar tissue / hypereflectivity (Sprague-Dawley rats; rat, in vivo): scar tissue (hypereflectivity)
Substance: benzalkonium chloride [0.02% BAK solution]
closure of the cleft (scraping closure), cell survival and migration ([1]; 1/10 dilutions (FIGS. 7 & 8)): no or only little closure
% of wound closure ([1]; 30 min incubation with 1/10 dilutions (FIG. 9)): 8%
corneal opacity / scarification of the cornea (Sprague-Dawley rats; day 4 after scraping, repeated instillations, right eye (FIG. 1)): scarification of the cornea was dramatic
